Experimental data from patent US20080319181A1, “Method of Making an Artificial Nuclease for Anti-viral, Anti-bacterial Applications” (The Government of the United States of America, as …, priority 2004, published 2008).

How the values were obtained:
Type in all cases: biochemical
[1] = Hydrolysis of BNPP by cobalt cyclen complexes (2nd order rate constants); details: 50° C., activation using sodium hydroxide
Description: The hydrolysis of BNPP by both Cocyc and 2 at 50° C., following activation using sodium hydroxide, has been measured (see Table 1). The second-order rate constants at pH 8.2 for both cyclen and 2 were similar at 14 and 12 M^−1 min^−1, respectively. The rate increased at pH 7.3 to a value of 19 M^−1 min^−1 for cyclen as compared to the published value of 2.8 M^−1 min^−1 at pH 7 (Chin, J.; Banaszczyk, M.; Jubian, V.; Zou, X. J. Am. Chem. Soc. 1989, 111, 186-190, the entire contents of which is incorporated herein by reference). The difference between the published value and ours can be attributed to different experimental conditions, such as buffer. pH, and the ratio of catalyst to substrate.
The much lower hydrolysis rate shown at pH 7.3 for Cocycmba is surprising. In order to determine whether the differences observed were mainly due to the carboxylic acid or to the presence of the benzene ring, the kinetics of 3 were measured at pH 7.3 and found to be 14 M^−1 min^−1, which is much closer to the Cocyc rate. Methylation of the benzoic acid takes away both the negative charge and an ability to effectively hydrogen bond. Therefore the results imply that the behavior of 2 can be mostly ascribed to the presence of the additional charge and the potential for hydrogen bonding. For example, the acid dissociation constants of cyclen of 5.6 and 8.0 mean that between pH 8.2 and 7.3 complexes 1 and 2 should convert from predominantly the dihydroxo to the aquo-hydroxo form (see FIG. 2). Since the benzoic acid is in the benzoate form (pKa 4.2), the increasing net positive charge at pH 7.3 of the coordination site may allow the benzoate to approach closer to Co(III) and interfere with the hydrolysis of BNPP.

pBluescript plasmid DNA = test: Hydrolysis (nicking) of plasmid DNA, agarose gel; details: pH 7; 5 mM cobalt complex; 0.1M MOPS; 37° C., approximately 16 hours; NIH Image
Description: DNA was digested with cocycmba and cocycmmb at three pH conditions (FIG. 3). Hydrolysis of the phosophodiester bonds of the double stranded (ds) plasmid DNA should lead to a conversion from the covalently closed supercoiled form to the nicked form of the plasmid. […] Plasmid DNA digested with a nicking enzyme (lane 1 FIG. 3) confirms that the slower moving band observed in digests with the cobalt catalysts is the nicked form of the plasmid.
Digests run overnight at 37° C. for approximately 16 hours on a 1.5% agarose gel. Controls with no cobalt catalyst were always run in parallel. b) 5 mM cocycmmb and 1.19 μg (0.168 mM bp) pBluescript plasmid DNA in 0.1M MOPS buffer at pH 7, 8, and 10 run under identical conditions. 1=Nickase+DNA, 2=DNA. 3=Cobalt complex+DNA at pH 7.4=pH 7 control, 5=Cobalt complex+DNA at pH 8, 6=pH 8 control, 7=Cobalt complex+DNA at pH 10, 8=pH 10 control Nickase reactions were performed at pH 7 using a 4 hour, 37° C. incubation of 1.18 μg pBluescript plasmid DNA.

Luciferase control-RNA = test: Western blot analysis of effect on protein translation (Rabbit Reticulocyte Lysate)
Description: Luciferase control-RNA (at a final concentration of 0.4 ug/mL) was incubated with increasing concentrations of Cocycmmb for 24 h in 1× HBS buffer (pH 7.4) for 24 h. After the incubation period, the RNA template was translated into luciferase protein using the Rabbit Reticulocyte Lysate translation system (Promega) according to the manufacturer's instructions. After translation, the reaction was analyzed by reducing SDS-PAGE and western blotting to monitor the presence of the 60 kDa luciferase protein product. An aliquot (3 uL) of the translation reaction was run on a 10% NuPAGE Bis-Tris polyacrylamide gel under reducing conditions and transferred to a solid support membrane (PVDF). The membrane was blocked for 1 h in TBS-T (TBS containing 0.05% Tween) and subsequently incubated for 1 h with a 1:2500 dilution of a streptavidin-alkaline phosphatase conjugate. Detection was achieved by exposing the membrane to Western Blue substrate for alkaline phosphatase.
RNA incubations were done as described above except that the Cocycmmb concentration was held constant at 5 mM (and, more recently, down to 0.05 mM) and incubated for varying amounts of time that spanned 24 h. SDS-PAGE and Western blotting were done as described above.

luciferase mRNA = test: Hydrolysis of RNA, denaturing agarose gel electrophoresis; details: 1 to 5 mM; 24 h at 25° C. in HBS (FIG. 5)
Description: The direct interaction of Co(III)-cycmmb with luciferase mRNA was analyzed by denaturing agarose gel electrophoresis. mRNA template (2 μg at a final concentration of 0.4 mg/mL) was incubated with varying concentrations (1 to 5 mM) of activated Co(III)-cycmmb for 24 h at 25° C. in 5 μL of HBS. Following the incubation, the reactions were analyzed by electrophoresis on a 2% denaturing agarose gel run for 4 h at 40 V. The gel was stained with RiboGreen (Molecular Probes), visualized by UV illumination, and images were quantified using Scion Image using the control incubation (no Co(III)-cycmmb) as a standard (see FIG. 5).

Molecule	2nd Order Rate Constants, hydrolysis of BNPP ([1]; pH 7.3)	2nd Order Rate Constants, hydrolysis of BNPP ([1]; pH 8.2)	nicked product (pBluescript plasmid DNA)	inhibition of protein production (Luciferase control-RNA; 0.25 mM, 10 minutes incubation time)	luciferase protein band in the Western blot (Luciferase control-RNA; as a function of Cocycmmb concentration and of time of contact with the RNA (FIG. 4))	hydrolysis of RNA (luciferase mRNA)
COC(=O)c1ccc(CN2CCNCCNCCNCC2)cc1.COS(=O)(=O)[O-].[Cl-].[Cl-].[Co+3] [Cocycmmb, Dichloro{methyl 4-[(1,4,7,10-tetraazacyclododec-1-yl)methyl]-benzoate}cobalt (III) methylsulfate]	0.233 M⁻¹ s⁻¹	0.183 M⁻¹ s⁻¹	43%	significant inhibition of protein production	absence of the protein band	hydrolyze RNA
dichloro(4-[1,4,7,10-tetraazacyclotetradec-1-yl]methylbennzoic acid)cobalt(III) chloride [Cocycmba]	0.045 M⁻¹ s⁻¹	0.2 M⁻¹ s⁻¹	25%			
